Data reported in patent publication US20260345582A1, “PRODRUG FOR ANTI-AGING RELATED DISEASES AND USE METHOD THEREOF” (Beijing SunCell Bio-Medical Co., Ltd., priority 2022, published 2026).
Entries after “also recorded” stand apart in the source; their conditions may differ. Blank lines part the entries; values can stand above or below the compound they belong to.

Key:
[1] = observation of status and clinical manifestations of mice during multiple rounds of administration; assay type: in vivo, C57 mice; settings: for mice depilated, dispirited and in poor state: after 3 consecutive rounds
Experimental: B. The schematic diagram of the multiple dosing and the subsequent blood routine examinations in mice. The drug was administered on 3 consecutive days per week, followed by a 4-day interval, for 3 weeks continuous administration. The drug was administered by intraperitoneal injection in the afternoon on days 0, 1, 2, 7, 8, 9, 14, 15, and 16, and the blood was collected and tested in the morning on days 1, 3, 5, 8, 10, 12, 15, 17, and 19, respectively.
(§1) A single administration of A13 or A13bG was performed. Female 5-6 week old C57 mice were treated with a single intraperitoneal injection. A13 and A13bG were administered in three different dose groups of 2, 5, and 20 mg/kg. Approximately 50 μl of blood was collected from each mouse at different time points into the EDTA tubes (RAM Scientific) by means of inner canthal blood extraction, and analyzed using a haematology analyzer for a blood routine examination and a platelet counting. Multiple administrations of A13 or A13bG were performed. Female 5-6 week old C57 mice were treated with multiple intraperitoneal injections. A13 and A13bG were administered in three different dose groups of 2, 5 and 20 mg/kg, three consecutive days per week, followed by a 4-day withdrawal for 3 weeks. The time points of administration were in the afternoon of days 0, 1, 2, 7, 8, 9, 14, 15, and 16, and the time points of blood collection and testing were in the morning of days 1, 3, 5, 8, 10, 12, 15, 17, and 19, respectively.

[2] = tested on: HELF cells (primary human embryonic lung fibroblast); assay: in vitro killing of induced senescent HELF cells (CCK-8); assay type: cell-based; settings: lung-derived, FIG. 3C
Excerpt: (§2) Induction of the Cellular Senescence

[3] = tested on: senescent cells (HEF, HELF, A549, MRC5, BJ, HUVEC); assay: in vitro killing of senescent cells, multiple cell models (CCK-8); assay type: cell-based, human; settings: FIG. 3B-3G
Excerpt: as §2

[4] = tested on: MRC5 cells (human embryonic lung fibroblast cell line); assay: in vitro killing of induced senescent MRC5 cells (CCK-8); assay type: cell-based; settings: lung-derived, FIG. 3G
Excerpt: as §2

[5] = tested on: normal cells (HEF, HELF, A549, MRC5, BJ, HUVEC); assay: in vitro toxicity to normal (non-senescent) cells, multiple cell models (CCK-8); assay type: cell-based, human; settings: especially some cells of primary origins sensitive to Bcl-xL inhibition
Excerpt: as §2

[6] = target: E. coli-derived β-galactosidase (Escherichia coli, UniProt P00722); assay: in vitro enzymatic hydrolysis of the prodrug by β-galactosidase (HPLC); assay type: biochemical; settings: role: substrate, 10 μM, β-galactosidase 10 U/μM, PBS 0.01 M pH 7.3, 37 °C, 6 hours, FIG. 2C
Experimental: Study of the Hydrolysis Reaction of A13bG
The in vitro enzymatic hydrolysis reaction was carried out using E. coli-derived β-galactosidase (Sigma) in PBS solution (0.01 M, pH 7.3) at a reaction concentration of 10 μM for both A13 and A13bG, and for 6 hours at 37 °C after the addition of β-galactosidase (10 U/μM). The hydrolysis reaction was monitored by the high performance liquid chromatography (HPLC). The compound A13 and the prodrug A13bG without enzyme reaction were analyzed by HPLC at the same conditions as the references. The chromatographic column model: Waters Acquity BEH C4, the conditions: 0.04 ml/min, (water (0.1% acetic acid)): the acetonitrile gradient elution: 98:2 1 min, 5:95 13 min, 5:95 18 min, 2:98 20 min.

[7] = plasma metabolic stability, mouse; assay type: in vitro ADME; settings: 120 min
Experimental: (§3) Plasma Metabolic Stability
(§4) Termination of the reaction was accomplished by the addition of 3× volume of acetonitrile and centrifugation at 16000 g for 20 minutes. The supernatant was taken for a LC-MS/MS analysis. The chromatographic column: Waters XSelect HSS T3; the flow rate: 500 μL/min; the eluent: A, water (0.1% formic acid); B, acetonitrile (0.1% formic acid); the gradient elution: 0-1.5 min, 5% B, 1.5-9 min, 5%-80% B, 9-12 min, 80%-100% B, 12-14 min, 100% B, 14-14.3 min, 100%-5% B, 14.3-15 min, 5% B.

[8] = plasma metabolic stability, monkey; assay type: in vitro ADME; settings: 120 min
Experimental: as §3, §4

[9] = plasma metabolic stability, human; assay type: in vitro ADME; settings: 120 min
Experimental: as §3, §4

[10] = tested on: BJ cells (human skin fibroblast cell line); assay: in vitro killing of induced senescent BJ cells (CCK-8); assay type: cell-based; settings: human skin-derived fibroblasts, FIG. 3D
Excerpt: as §2

[11] = plasma metabolic stability, all species; assay type: in vitro ADME; settings: human, monkey, canine, rat, and mouse; preliminary test
Experimental: as §3, §4

[12] = plasma metabolic stability, canine; assay type: in vitro ADME; settings: dog, 120 min
Experimental: as §3, §4

[13] = tested on: platelets in peripheral blood; assay: in vivo platelet toxicity test, single intraperitoneal injection; design: species or system C57 mice; settings: FIG. 4A
Excerpt: A. Results of the platelet counts in peripheral blood on days 1, 3, 5, 8, and 10 after a single intraperitoneal injection of different doses of the given drug. Each dot in the panel represents the count of platelets detected in 1 mouse at that time point (n=4 mice); A13 represents the parent compound A1331852 administration group, and A13bGa1 represents the prodrug obtained after the β-gal modification of A13, and mpk represents the milligram dose per kilogram of the body weight. There were three different dose groups of 2, 5, and 20 mg/kg for both A13 and A13bGa1 administration. The dashed line in the panel indicates the mean value of the platelet counts of the mice in the control single vehicle administration group.
In Vivo Platelet Toxicity Test
as §1, with “The time points of administration were in the afternoon of days 0, 1, 2, 7, 8, 9, 14, 15, and 16, and the time points of blood collection and testing were in the morning of days 1, 3, 5, 8, 10, 12, 15, 17, and 19, respectively.” left out
For a blood routine examination, 50 μl of fresh blood was collected from each mouse and immediately mixed with EDTA. Blood samples were analyzed by Celltac Alpha MEK-6400 series haematology analyzer (Nihon Kohden, MEK-6400). Data were expressed as the number of different blood cells or platelets per μl of blood. […] A 200 μl of serum was aliquoted and analyzed for alanine aminotransferase (ALT), aspartate aminotransferase (AST), uric acid (UA), and creatinine (CREA) by a chemistry analyzer (Mindray, BS-350E).

[14] = 10 μM prodrug, read-out: The peak area after normalisation at minute 120, oxidative dehydrogenation metabolite
[15] = 10 μM, read-out: The peak area after normalisation at minute 120, initial drug
[16] = single intraperitoneal administration, 2, 5, 20 mg/kg

E. coli-derived β-galactosidase, sequence (P00722 whole entry): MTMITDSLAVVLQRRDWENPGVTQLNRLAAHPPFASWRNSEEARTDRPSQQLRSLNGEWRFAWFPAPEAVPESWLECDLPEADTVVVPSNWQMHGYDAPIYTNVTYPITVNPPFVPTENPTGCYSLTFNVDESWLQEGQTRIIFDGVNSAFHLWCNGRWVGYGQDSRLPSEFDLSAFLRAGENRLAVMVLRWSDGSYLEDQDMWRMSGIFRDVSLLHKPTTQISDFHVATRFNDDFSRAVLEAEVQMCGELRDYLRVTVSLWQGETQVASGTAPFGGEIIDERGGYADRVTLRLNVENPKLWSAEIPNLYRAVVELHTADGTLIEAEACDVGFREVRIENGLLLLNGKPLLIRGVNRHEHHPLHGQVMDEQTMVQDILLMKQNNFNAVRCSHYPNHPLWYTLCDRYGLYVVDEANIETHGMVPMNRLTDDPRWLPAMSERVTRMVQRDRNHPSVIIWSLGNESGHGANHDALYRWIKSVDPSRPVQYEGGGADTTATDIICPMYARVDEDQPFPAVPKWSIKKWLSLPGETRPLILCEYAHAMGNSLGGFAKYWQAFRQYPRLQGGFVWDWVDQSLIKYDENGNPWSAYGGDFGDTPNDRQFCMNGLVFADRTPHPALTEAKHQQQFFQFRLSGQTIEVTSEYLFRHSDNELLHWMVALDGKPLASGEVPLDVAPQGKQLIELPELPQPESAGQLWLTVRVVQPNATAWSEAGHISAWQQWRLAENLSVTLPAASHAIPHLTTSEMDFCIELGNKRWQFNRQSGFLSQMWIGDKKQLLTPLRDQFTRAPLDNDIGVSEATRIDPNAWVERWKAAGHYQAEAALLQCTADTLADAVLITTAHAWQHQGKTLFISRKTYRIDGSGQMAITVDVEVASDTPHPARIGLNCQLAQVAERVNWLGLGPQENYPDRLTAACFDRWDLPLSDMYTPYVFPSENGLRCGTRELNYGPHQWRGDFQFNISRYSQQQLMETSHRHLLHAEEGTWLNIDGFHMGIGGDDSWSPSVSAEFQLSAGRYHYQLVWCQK

mice depilated, dispirited and in poor state ([1]; 5 mg/kg dose group): 2 out of 4
mice depilated, dispirited and in poor state ([1]; 20 mg/kg dose group): 2 out of 4
SMILES: Cc1c(-c2ccc(N3CCc4cccc(C(=O)Nc5nc6ccccc6s5)c4C3)nc2C(=O)O)cnn1CC12CC3CC(CC(C3)C1)C2 [Compound A13, 3-[1-(adamantan-1-ylmethyl)-5-methylpyrazol-4-yl]-6-{8-[(1,3-benzothiazol-2-yl)carbamoyl]-3,4-dihydro-1H-isoquinolin-2-yl}pyridine-2-carboxylic acid]
status and clinical manifestations (abnormalities) ([1]; 5 mg/kg and 20 mg/kg, 3 consecutive weeks, FIG. 4D): depilated, dispirited and in poor state; also recorded: hair loss and depression

SMILES: Cc1c(-c2ccc(N3CCc4cccc(C(=O)Nc5nc6ccccc6s5)c4C3)nc2C(=O)OCc2ccc(O[C@@H]3O[C@H](CO)[C@H](O)[C@H](O)[C@H]3O)c([N+](=O)[O-])c2)cnn1CC12CC3CC(CC(C3)C1)C2 [Compound A13bGa1]
killing of the senescent cells, efficiency and selectivity [2]: highly efficient and selective in killing the senescent cells
overall killing activity on the senescent cells compared with the parent compound A13 [3]: somewhat reduced compared with that of the parent compound A13
killing of the senescent cells, efficiency and selectivity [4]: highly efficient and selective in killing the senescent cells
toxicity to the normal cells compared with the parent compound A13 [5]: greatly reduced
hydrolysis under the action of β-gal enzyme, release of the parent compound A13 [6]: hydrolysed under the action of β-gal enzyme to release the parent compound A13
metabolised at 2 h, 10 µM [7, 14]: 0.04%
remaining at 2 h, 10 µM [7, 15]: 100%
metabolised at 2 h, 10 µM [8, 14]: 0.04%
remaining at 2 h, 10 µM [8, 15]: 100%
metabolised at 2 h, 10 µM [9, 14]: 0.07%
remaining at 2 h, 10 µM [9, 15]: 99.9%
killing of the senescent cells, efficiency and selectivity [10]: highly efficient and selective in killing the senescent cells
stability in the plasma [11]: highly stable
metabolised at 2 h, 10 µM [12, 14]: 0.48%
remaining at 2 h, 10 µM [12, 15]: 99.5%
platelet toxicity compared with the parent compound A13 [13, 16]: significantly less toxic to the platelets than the parent compound A13
platelet-destroying effect [13, 16]: strong platelet-destroying effect only at the higher dose of 20 mg/kg
effect on the magnitude of the platelet changes in peripheral blood compared with A13 ([13]; single intraperitoneal administration): significantly less than that of A13
